Measured values: patent publication US20240166695A1, “PEPTIDIC POSITIVE ALLOSTERIC MODULATORS TARGETING TRPV1” (priority 2021, published 2024)

How the values were obtained:
[1] = tested on: TRPV1; experiment: Calcium imaging (Fluo-4) of capsaicin activation in transfected HEK293 cells; type: cell-based; conditions: 0.5 nM capsaicin; cells expressing only TRPV1
Description: We then investigated whether, upon binding of the designed proteins, TRPV1 activation was positively modulated. […] Probenecid (2 mM) was included in all solutions to prevent Fluo-4 leakage from cells. At the end of incubation, cells were washed three times with ECS and incubated in the same solution for another 20 min at room temperature to complete the intracellular hydrolysis process of the AM ester, which converts the non-fluorescent Fluo-4/AM into the fluorescent version Fluo-4.
Coverslip with dye-loaded cells was placed in the quick-release magnetic chamber (Warner) and mounted on the stage of a Nikon Eclipse TE2000-U microscope system equipped with a Roper Cascade 128B CCD camera. Fluo-4 was excited by an Argon laser with a filter set of Z488/10 (excitation), z488rdc (dichroic) and recorded through an emission filter HQ5001p (all from Chroma). The duration of light exposure was controlled by a computer-driven mechanical shutter (Uniblitz). Cell images were acquired sequentially with an exposure period of 200 ms at an interval of 1 s. The shutter and the camera were controlled and synchronized by MetaMorph software (Universal Imaging).

[2] = tested on: rats; experiment: Heat pain test, paw withdrawal latency after intraplantar injection; type: in vivo, Sprague-Dawley rats; conditions: for paw withdrawal latency / analgesic effect: intradermal hind paw injection, 100 μl, capsaicin 150 μM alone or with MRS1477 50 μM or TAT-De3 150 μM
Description: Animals. Male Sprague-Dawley rats (200-250 g, Charles River Laboratories, Inc.) were housed under a 12 h light-dark cycle and allowed access to food and water ad libitum. The ambient temperature of the holding and testing; rooms was ˜22° C. All procedures involving animals were carried out in strict compliance with the National Institutes of Health and institutional guidelines for the humane care of animals and were approved by the Animal Care and Use Committee of Zhejiang University (Approval ID: ZJU20190100). All efforts were made to minimize both animal numbers and distress within the experiments.
Animal behavioral measurements. A 10 mM stock solution of MRS1477 was prepared in 100% DMSO and further diluted in vehicle to 2 μg/100 μl (50 μM). […] Capsaicin-only injectates contained an equal amount of DMSO as those with MRS1477. All intraplantar injections were made using a. 29 G×½″, 3/10 cc insulin syringe. The experimenter was blinded to the identity of the injectates in the various behavioral experiments.
Thermal hyperalgesia measurement was performed as reported previously (11, 35). Briefly, unrestrained rats were placed on a clear glass platform which a light beam was applied onto the plantar hind paws of the animals under a small plastic cage which allowed them to move freely. The thermal nociceptive response was defined as the latency between light stimulus onset and paw withdrawal using a feedback-controlled shutdown unit. The intensity of the light stimulus was set such that naive rats responded with a latency of approximately 5 s. Each paw was tested one time. In the absence of a response within a predetermined maximum latency (30 s), the test was terminated to prevent tissue damage. On the day of testing, rats were allowed to habituate for at least 30 min prior to thermal stimulation. […]
We observed significant analgesic effects of TAT-De3 intradermally injected into the hind paw of rats against thermal pain. […] We recorded paw withdrawal latency to reflect the pain sensation. […]

[3] = Body temperature measured in the course of heat pain tests; conditions: rats, injection of PAM in heat pain tests

Structure (SMILES) | calcium influx [1] | paw withdrawal latency / analgesic effect [2] | hyperthermia (body temperature) [3] | duration of analgesic effects after a single injection ([2]; co-injected with capsaicin 150 μM)
COc1cc(CNC(=O)CCCC/C=C/C(C)C)ccc1O [capsaicin, reference compound] | did not illicit calcium influx | no change in the paw withdrawal latency | – | –
CCOC(=O)C1=C(c2ccccc2)NC(C)=C(C(=O)SCCOC)C1CC (centres unmarked) [MRS1477] | – | paw withdrawal latency was increased | did not cause hyperthemia | diminished after three days
